Test results as given in PMC8508960, “Ruthenium Half-Sandwich Type Complexes with Bidentate Monosaccharide Ligands Show Antineoplastic Activity in Ovarian Cancer Cell Models through Reactive Oxygen Species Production” (International Journal of Molecular Sciences, 2021).
Where “and” joins values, the source holds several entries; their conditions need not be identical. Equal entries are not always repeated. Entries after “also recorded” stand apart in the source; their conditions may differ.

Legend:
[1] = system: A2780 human ovarian carcinoma cells; experiment: SRB proliferation assay (48 h) on A2780 cells; type: cell-based; details: for cytostatic activity in long-term SRB assay (in words): A2780 cells, 100–0.0017 µM; for A2780 Hill Slope / IC50: SRB, nonlinear regression, N/A = could not be calculated/had no effect
Description: (§1) Cells were cultured under standard cell culture conditions, 37 °C, 5% CO2, humidified atmosphere. A2780 cells were cultured in RMPI 1640 medium supplemented with 10% fetal calf serum, 2 mM glutamine, and 1% penicillin–streptomycin (Sigma-Aldrich). ID8 cells were cultured in high-glucose DMEM (4.5 g/L glucose) supplemented with 4% fetal calf serum, 2 mM glutamine, 1% penicillin–streptomycin (Sigma-Aldrich), and 1% ITS supplement (Sigma-Aldrich I3146). U251 cells were maintained in MEM (Sigma-Aldrich), 10% fetal bovine serum (Sigma-Aldrich), 1% penicillin/streptomycin (Invitrogene), and 2 mM glutamine. MCF7 cells were maintained in MEM (Sigma-Aldrich), 10% fetal bovine serum (Sigma-Aldrich), 1% penicillin/streptomycin (Invitrogen, Waltham, MA, USA), and 2 mM glutamine. Capan2 cells were maintained in MEM (Sigma-Aldrich), 10% fetal bovine serum (Sigma-Aldrich), 1% penicillin/streptomycin (Invitrogen), and 2 mM glutamine. Human primary dermal fibroblasts were cultured in low-glucose DMEM (1 g/L glucose) supplemented with 20% fetal calf serum, 2 mM glutamine, and 1% penicillin–streptomycin (Sigma-Aldrich).
(§2) The SRB accumulation assay assesses protein content in a sample, and it was used to assess cell proliferation. The SRB accumulation assay was performed similarly to [68]. Cells were seeded in 96-well plates. The next day, cells were treated with the compounds for 48 h in the concentrations indicated in a cell incubator. At the end of treatment, cells were fixed with 10% trichloroacetic acid (TCA). Fixed cells were stained with SRB (0.4% m/v dissolved in 1% acetic acid) for 60 min. Fixed cells were washed in 1% acetic acid three times; acetic acid was removed, and cells were left to dry. Protein-bound SRB was released by adding 100 µL of 10 mM Tris base. Plates were measured in a plate photometer (Thermo Scientific Multiscan GO spectrophotometer, Waltham, MA, USA) at 540 nm. On each plate, wells were designed to contain untreated cells. In calculations, the readings for these wells were considered as 1, and all readings were expressed relative to these values.
(§3) Statistical analysis was performed using Graphpad Prism version 8.0.1. Values were tested for normal distribution using the D’Agostino and Pearson normality test. When necessary, values were log-normalized or were normalized using the Box–Cox normalization method, as indicated in the figure captions. Nonlinear regression was performed using the built-in “[Inhibitor] vs. response—variable slope (four parameters), least square fit” utility of Graphpad that yielded IC50 and Hill slope values.

[2] = system: ID8 cells; experiment: SRB proliferation assay (48 h) on ID8 cells; type: cell-based; details: for IC50 / ID8 Hill Slope: SRB, nonlinear regression, N/A = could not be calculated/had no effect; for cytostatic activity in long-term SRB assay (in words): ID8 cells
Description: as §1, §2, §3

[3] = system: human primary skin fibroblasts; experiment: SRB proliferation assay (48 h) on primary fibroblasts; type: cell-based
Description: as §1, §2, §3

[4] = system: A2780 human ovarian carcinoma cells; experiment: MTT reduction assay (4 h, rapid toxicity) on A2780 cells; type: cell-based
Description: as §1
The MTT reduction assay assesses the activity of mitochondrial complex I, and it was used to assess rapid toxicity. The MTT reduction assay was performed similarly to [67]. Cells were seeded in 96-well plates. The next day, cells were treated with the compounds for 4 h in the concentrations indicated in a cell incubator. At the end of treatment, MTT was added in 0.5 mg/mL final concentration, and cells were incubated at 37 °C in a cell incubator. Then, culture media was removed, the reduced MTT dye was resolved in dimethyl sulfoxide (DMSO), and plates were measured in a plate photometer (Thermo Scientific Multiscan GO spectrophotometer, Waltham, MA, USA) at 540 nm. On each plate, wells were designed to contain untreated/vehicle-treated cells. In calculations, the readings for these wells were considered as 1, and all readings were expressed relative to these values.

[5] = system: A2780 cells; experiment: SRB assay on A2780 cells with or without 3 µM rucaparib; type: cell-based, human; details: 48 h, 3 µM
Description: as §2, §3

[6] = SRB, nonlinear regression, N/A = could not be calculated/had no effect

What does the source list for `Cc1ccc(C(C)C)cc1.F[P-](F)(F)(F)(F)F.[Cl][Ru+].c1ccc(-c2nnc(-c3ccccn3)o2)cc1` [Ru-14]?
cytostatic activity in long-term SRB assay (in words) [1]: no cytostatic activity; also recorded: fully abrogated it; A2780 Hill Slope [1]: 0.77

Which results are given for `N.N.[Cl][Pt][Cl]` [Cisplatin, cisplatin, reference compound]?
A2780 Hill Slope [1]: 1.20; IC50 [1]: 1.21 µM; IC50 [2]: 10.8 µM; ID8 Hill Slope [2]: 0.99; Fibroblast Hill Slope [3, 6]: 1.53; IC50 ([3]; SRB, nonlinear regression, N/A = could not be calculated/had no effect, read-out: Fibroblast IC50): 11.9 µM; effect in SRB assay above 10 µM ([3]; primary human fibroblasts, above 10 µM): cytostatic

How did the “A2780 Hill Slope” value [1] turn out when `N.N.O=C([O-])C1(C(=O)[O-])CCC1.[Pt+2]` [Carboplatin, carboplatin, reference compound] was run?
Its value is 1.02.

What about the IC50 [1] of the same molecule?
The IC50 was 28 µM.

And the “ID8 Hill Slope” value [2]?
The value was 0.62.

And the “effect in long-term SRB assay (in words)” value ([3]; primary human fibroblasts)?
Its value is “no effect”.

Which results are given for `O=C(OC[C@H]1O[C@@H](c2nnc(-c3ccccn3)o2)[C@H](OC(=O)c2ccccc2)[C@@H](OC(=O)c2ccccc2)[C@H]1OC(=O)c1ccccc1)c1ccccc1` [Complex L-8, 2-(2′,3′,4′,6′-Tetra-O-benzoyl-β-D-galactopyranosyl)-5-(pyridin-2-yl)-1,3,4-oxadiazole]?
cytostatic activity in long-term SRB assay (in words) [1]: no biological activity; also recorded: none of the corresponding ligands (L-2a, L-4, L-6, and L-8) had cytostatic properties; cytostatic activity in long-term SRB assay (in words) [2]: none of the corresponding ligands (L-2a, L-4, L-6, and L-8) had cytostatic properties; effect in long-term SRB assay (in words) ([3]; primary human fibroblasts): no effect; effect in short-term MTT assay, rapid toxicity (in words) [4]: no biological activity

What does the source list for `O=C1[O][Pt]2([NH][C@@H]3CCCC[C@H]3[NH]2)[O]C1=O` [Oxaliplatin, oxaliplatin, reference compound]?
A2780 Hill Slope [1]: 1.27; IC50 [1]: 0.12 µM; IC50 [2]: 4.59 µM; ID8 Hill Slope [2]: 1.58; Fibroblast Hill Slope [3, 6]: 0.37; effect in long-term SRB assay (in words) ([3]; primary human fibroblasts): no effect

How did the “cytostatic activity in long-term SRB assay (in words)” value (“cytostatic activity” for short) [1] turn out when `CC(=O)OCC1OC(c2n[n+]3c(o2)-c2cccc[n+]2[Ru-]3[Cl])C(OC(C)=O)C(OC(C)=O)C1OC(C)=O.Cc1ccc(C(C)C)cc1.F[P-](F)(F)(F)(F)F` (mixture of isomers) [Ru-5] was run?
The value was “abrogated the inhibitory activity”.

With `Cc1ccc(C(C)C)cc1.F[P-](F)(F)(F)(F)F.[Cl][Ru+].c1ccc(-n2cc(-c3ccccn3)nn2)cc1` [Ru-13] as the molecule, how does the “cytostatic activity” value [1] read?
The value was “lowered the cytostatic capacity”.

And the “A2780 Hill Slope” value [1]?
Its value is 1.5 and 1.57.

And the IC50 [1]?
Its IC50 is 12 µM.

With `c1ccc(-c2nnc(-c3ccccn3)o2)cc1` [Complex L-14, 2-phenyl-5-(pyridine-2-yl)-1,3,4-oxadiazole] as the molecule, how does the “cytostatic activity” value [1] read?
The value was “Neither of the free ligands, L-13 or L-14, had cytostatic activity”.

With `CNCc1ccc(-c2[nH]c3cc(F)cc4c3c2CCNC4=O)cc1` [Rucaparib, rucaparib, reference compound] as the molecule, how does the “cell proliferation (in words)” value [5] read?
The value was “reduced cell proliferation”.

How did the “cytostatic activity” value [1] turn out when `Cc1ccc(C(C)C)cc1.F[P-](F)(F)(F)(F)F.OCC1OC(c2nnc(-c3ccccn3)o2)C(O)C(O)C1O.[Cl][Ru+]` (mixture of isomers) [Ru-10] was run?
Its value is “abrogated the inhibitory activity”.

`c1ccc(-n2cc(-c3ccccn3)nn2)cc1` [Complex L-13, 1-phenyl-4-(pyridine-2-yl)-1,2,3-triazole] was tested. Which “cytostatic activity” value [1] did it give?
Its value is “Neither of the free ligands, L-13 or L-14, had cytostatic activity”.

Which “cytostatic activity” value [1] does the source give for `O=C(OC[C@H]1O[C@@H](n2cc(-c3ccccn3)nn2)[C@H](OC(=O)c2ccccc2)[C@@H](OC(=O)c2ccccc2)[C@@H]1OC(=O)c1ccccc1)c1ccccc1` [Complex L-2a, 1-(2′,3′,4′,6′-Tetra-O-benzoyl-β-D-glucopyranosyl)-4-(pyridin-2-yl)-1,2,3-triazole] here?
The value was “no biological activity; also recorded: none of the corresponding ligands (L-2a, L-4, L-6, and L-8) had cytostatic properties”.

What about the “cytostatic activity” value [2] of the same molecule?
Its value is “none of the corresponding ligands (L-2a, L-4, L-6, and L-8) had cytostatic properties”.

What about the “effect in long-term SRB assay (in words)” value ([3]; primary human fibroblasts) of the same molecule?
The value was “no effect”.

And the “effect in short-term MTT assay, rapid toxicity (in words)” value (“effect in short-term MTT assay” below) [4]?
The value was “no biological activity”.

`O=C(O[C@@H]1[C@@H](OC(=O)c2ccccc2)[C@H](c2nnc(-c3ccccn3)o2)OC[C@H]1OC(=O)c1ccccc1)c1ccccc1` [Complex L-6, 2-(2′,3′,4′-Tri-O-benzoyl-β-D-xylopyranosyl)-5-(pyridin-2-yl)-1,3,4-oxadiazole] was tested. Which “cytostatic activity” value [1] did it give?
The value was “no biological activity; also recorded: none of the corresponding ligands (L-2a, L-4, L-6, and L-8) had cytostatic properties”.

And the “cytostatic activity” value [2]?
Its value is “none of the corresponding ligands (L-2a, L-4, L-6, and L-8) had cytostatic properties”.

And the “effect in long-term SRB assay (in words)” value ([3]; primary human fibroblasts)?
The value was “no effect”.

And the “effect in short-term MTT assay” value [4]?
The value was “no biological activity”.

For `O=C(OC[C@H]1O[C@@H](c2nnc(-c3ccccn3)o2)[C@H](OC(=O)c2ccccc2)[C@@H](OC(=O)c2ccccc2)[C@@H]1OC(=O)c1ccccc1)c1ccccc1` [Complex L-4, 2-(2′,3′,4′,6′-Tetra-O-benzoyl-β-D-glucopyranosyl)-5-(pyridin-2-yl)-1,3,4-oxadiazole], which “cytostatic activity” value [1] is on record?
Its value is “no biological activity; also recorded: none of the corresponding ligands (L-2a, L-4, L-6, and L-8) had cytostatic properties”.

And the “cytostatic activity” value [2]?
Its value is “none of the corresponding ligands (L-2a, L-4, L-6, and L-8) had cytostatic properties”.

And the “effect in long-term SRB assay (in words)” value ([3]; primary human fibroblasts)?
Its value is “no effect”.

What about the “effect in short-term MTT assay” value [4] of the same molecule?
Its value is “no biological activity”.
